Assay results from publication PMC10077203, “Structure modification, antialgal, antiplasmodial, and toxic evaluations of a series of new marine-derived 14-membered resorcylic acid lactone derivatives” (Marine Life Science & Technology, 2021).
Values joined by “and” are separate entries in the source; they are usually repeats but may differ in a detail not shown here. Equal entries are not always repeated. Where two headings read alike, the source gives them in different places.

How the values were obtained:
[1] = In vitro cytotoxicity (CC50); format: cell-based; conditions: human, HUVEC cells
Description: Toxicity is a major concern of drug discovery and development, and the selectivity index (SI) is used as the evaluation parameter of drug potential of the test samples by comparing the toxicity on a human cell line (CC50) and the selective inhibitory effect on P. falciparum (IC50) calculated here as CC50/IC50. We decided to evaluate in vitro cytotoxicity of the active derivatives 38, 39, 50, 52, 65, 67, 70, and 71 by determining their 50% cytotoxic concentrations. The results are presented in Table 3, presenting only those CC50 values > 100 μmol/L, reaching selectivity indexes > 10. The cytotoxic concentration at 150 μmol/L was not be determined because of a lack of solubility of the tested molecule in the culture medium. Moreover, the toxicity of these derivatives was also evaluated against two other cell lines: hepatocellular liver carcinoma cell line (Hep G2) and cervical carcinoma (HeLa), finding CC50 values > 100 μmol/L.

[2] = tested on: chloroquine sensitive HB3 strain of P. falciparum; experiment: In vitro antiplasmodial assay (Pico-Green growth inhibition); format: cell-based, Plasmodium falciparum; conditions: for P. falciparum SI, Selectivity Index (CC50/IC50): CC50 HUVEC / IC50 P. falciparum; for IC50: Plasmodium falciparum; for antiplasmodial activity against P. falciparum (in words): structure-activity discussion
Method: In vitro antiplasmodial activity was performed by culturing human erythrocytes and infecting them with P. falciparum, as reported by Trager and Jensen ([1976]). Briefly, the chloroquine sensitive HB3 strain of P. falciparum-infected O + erythrocytes was cultured in RPMI 1640 medium supplemented with 10% human serum (from O + blood) at a hematocrit of 2% erythrocytes at 37 °C with a gas mixture containing 90% N2, 5% CO2, and 5% O2. Parasites were synchronized with 5% D-sorbitol (Lambros and Vanderberg [1979]). P. falciparum growth inhibition bioassays were performed with the procedure as described by Corbett et al. ([2004]), which used Pico-Green, a double stranded-DNA fluorescent dye to test the effect of compounds.

[3] = tested on: P. tricornutum Bohlin, C. vulgaris, C. socialis, N. laevissima, and N. exigua; experiment: Diatom growth inhibition assay, whole panel; format: cell-based; conditions: Chlorella vulgaris; selective and moderate activities; read-out: EC50 antialgal, range over compounds and algae
Method: (§1) The antialgal activity against the microalgae P. tricornutum Bohlin, C. vulgaris, C. socialis, N. laevissima, and N. exigua was evaluated by the method of Ortlepp et al. ([2008]). Briefly, the microalgae were grown in sterilized BG11 medium under light intensity of 2500 lx and 12 h: 12 h light: dark cycle at temperature of 20 ℃. The microalgae were grown to reach the logarithmic phase (approximately 5 × 10^5 cells/ml), which were used for microalgae growth inhibition assay. The compounds 1–71 were first dissolved in a small amount of DMSO and then diluted with 0.22 μm of filtered seawater (FSW) to achieve a range of concentrations from 0.625 to 50 μg/ml. Ten microliters of the compound solution was added to multiwell Petri dishes containing a 1-mL suspension of the microalgae (approximately 12 × 10^4 cells/ml). FSW with DMSO was used as a negative control, and solutions of SeaNine 211 in seawater were used as positive controls. After the plates were incubated for 48 h (16 ± 1 ℃) under continuous light, the FSW with non-attached microalgae was removed. The amount of chlorophyll a in attached microalgae was determined with a spectrophotometer (Beckman, model DU650, USA). Then the EC50 (inhibits 50% of settlement of cyprids in comparison with the control) was calculated using the Probit software program.

[4] = tested on: P. tricornutum Bohlin; experiment: Diatom growth inhibition assay (antialgal activity); format: cell-based, Phaeodactylum tricornutum Bohlin; conditions: 48 h, chlorophyll a of attached microalgae, read-out: EC50 P. tricornutum
Method: as §1

[5] = tested on: N. exigua; experiment: as above; format: cell-based, Navicula exigua
Method: as §1

[6] = tested on: C. vulgaris; experiment: as above; format: cell-based, Chlorella vulgaris; conditions: 48 h, chlorophyll a of attached microalgae, read-out: EC50 C. vulgaris
Method: as §1

[7] = tested on: N. laevissima; experiment: as above; format: cell-based, Navicula laevissima; conditions: 48 h, chlorophyll a of attached microalgae, read-out: EC50 N. laevissima
Method: as §1

[8] = tested on: C. socialis; experiment: as above; format: cell-based, Chaetoceros socialis; conditions: 48 h, chlorophyll a of attached microalgae, read-out: EC50 C. socialis
Method: as §1

[9] = tested on: zebrafish embryos; experiment: Zebrafish embryo toxicity test; format: in vivo; conditions: 50 μmol/L, after 24 h
Method: Toxicity assays were carried out using the method of Wang et al. ([2011]). Briefly, the normal embryos were selected and transferred into a 24-well plate. The embryos at 1 h postfertilization (hpf) were exposed by immersion in E3 embryo medium containing the derivative in a 1% (v/v) DMSO final solvent concentration in a 24-well plate. The developmental phenotypes of the experimental status of the embryos were observed every 24 h for 72 h and were photographed with a charge-coupled device (CCD) camera.

[10] = Erythrocyte, HB3 strain in human erythrocytes, read-out: P. falciparum IC50
[11] = 48 h, chlorophyll a of attached microalgae, read-out: EC50 N. exigua
[12] = 48 h, chlorophyll a of attached microalgae; read-out: EC50 N. exigua

SMILES	IC50 [2, 10] [µM]	EC50 [3] [µM]	EC50 ([4]; Phaeodactylum tricornutum) [µM]	EC50 [5, 11] [µM]	EC50 ([6]; Chlorella vulgaris) [µM]	EC50 ([7]; Sellaphora laevissima) [µM]	EC50 ([8]; Chaetoceros socialis) [µM]	other results
[2H]C([2H])([2H])C1(C([2H])([2H])[2H])OC2C=CCC(C)OC(=O)c3c(cc(OC)cc3OCc3ccc(-c4ccccc4C(=O)OC)cc3)C=CCC(O)C2O1 (centres unmarked) [Compound 67]	7.25							CC50 [1]: > 100 µM; P. falciparum SI, Selectivity Index (CC50/IC50) [2]: > 13
[2H]C([2H])([2H])C1(C([2H])([2H])[2H])OC2C=CCC(C)OC(=O)c3c(cc(OC)cc3OCc3cccc(C)c3)C=CCC(O)C2O1 (centres unmarked) [Compound 62]		11 to 32.5	> 10	14.2	16.3	> 10	25.8	
COCC(=O)Oc1cc(OC)cc2c1C(=O)O[C@@H](C)C/C=C/[C@H](O)[C@@H](O)[C@@H](O)C/C=C/2 [Compound 34]			16.2	8.76	12.1	8.55	> 10	EC50 [5, 12]: 8.55 µM; EC50 [7]: 8.76 µM; antiplasmodial activity against P. falciparum (in words) [2]: moderate activity
COc1cc(OC(=O)C(C)(C)C)c2c(c1Cl)C=CCC(O)C(O)C(O)C=CCC(C)OC2=O (centres unmarked) [Compound 3]		11 to 32.5	22.3	> 10	30.9	> 10	> 10	
COC(=O)c1ccc(COc2cc(OC)c(Cl)c3c2C(=O)OC(C)CC=CC2OC(C)(C)OC2C(O)CC=C3)cc1 (centres unmarked) [Compound 52]	9.72							CC50 [1]: > 100 µM; P. falciparum SI, Selectivity Index (CC50/IC50) [2]: > 10
COc1cc(COc2cc(OC)c(Cl)c3c2C(=O)OC(C)CC=CC(O)C(O)C(O)CC=C3)cc(OC)c1 (centres unmarked) [Compound 13]	12.6	11 to 32.5	14	> 10	> 10	16.9	24	antiplasmodial activity against P. falciparum (in words) [2]: active
[2H]C([2H])([2H])C1(C([2H])([2H])[2H])OC2C=CCC(C)OC(=O)c3c(cc(OC)cc3OCc3cccc(F)c3)C=CCC(O)C2O1 (centres unmarked) [Compound 60]								antiplasmodial activity against P. falciparum (in words) [2]: active
COc1cc2c(c(OCc3ccc4ccccc4c3)c1)C(=O)OC(C)CC=CC(O)C(O)C(O)CC=C2 (centres unmarked) [Compound 14]		11 to 32.5	> 10	18.5	> 10	20.4	17.2	death of zebrafish embryos [9]: all embryos died
CCN(CC)CCCC(C)Nc1ccnc2cc(Cl)ccc12 (centres unmarked) [Chloroquine, reference compound]								IC50 ([2]; HB3, Erythrocyte, read-out: P. falciparum IC50): 37.9 µM; IC50 ([2]; HB3, read-out: P. falciparum IC50 (positive control, methods)): 0.0329 µM
COc1cc2c(c(OCc3ccccc3)c1)C(=O)OC(C)CC=CC(O)C(O)C(O)CC=C2 (centres unmarked) [Compound 4]		11 to 32.5	21	11	> 10	13.6	> 10	
COCC(=O)Oc1cc(OC)c(Cl)c2c1C(=O)OC(C)CC=CC1OC(C)(C)OC1C(OC(=O)COC)CC=C2 (centres unmarked) [Compound 35]	11.6							
CCCCCCCCn1sc(Cl)c(Cl)c1=O [SeaNine 211, reference compound]								EC50 [4]: 0.74 µM; EC50 [5, 12]: 9.74 µM and 9.47 µM; EC50 [6]: 6.52 µM; EC50 [7]: 2.9 µM; EC50 [8]: 1.87 µM
